Tests used:
[1] = tested on: sickle cell disease model; conditions: sickle cell disease model in baboons; Am. J. Hematol. 1985; cited from earlier work
[2] = clinical; conditions: human, in vivo, iv, 20 mg/m2, 5-Days total (AUClast) IV

SMILES: O=C1NC(O)CCN1[C@@H]1O[C@H](CO)[C@@H](O)[C@H]1O (some centres unmarked) [Tetrahydrouridine]
- effect on the potency of decitabine [1]: improve the potency of decitabine

SMILES: Nc1ncn([C@H]2C[C@H](O)[C@@H](CO)O2)c(=O)n1 [decitabine, 5-aza-2′-deoxycytidine]
- AUC(0-t) [2]: 852 ng·h/mL
